Here are results for 84 compounds from PubChem BioAssay AID1418 (Emory University Molecular Libraries Screening Center, 2008).

Activity calls are given as the source filed them. How the calls were made is not given here. Where only a bound is given, the exact number is not on record here.

Broadly, the IC50 is the midpoint of a concentration-inhibition curve.

This test deals with Induced myeloid leukemia cell differentiation protein Mcl-1 (Homo sapiens) (UniProt Q07820). The experiment in a line: blockers of Bid binding to Mcl-1 – biochemical, TR-FRET, dose response (AID 1418). The following applies: Mcl-1/Bid peptide binding, TR-FRET (europium/Dy647), 2 hr.
Induced myeloid leukemia cell differentiation protein Mcl-1 (Homo sapiens), sequence (Q07820 whole entry, looked up): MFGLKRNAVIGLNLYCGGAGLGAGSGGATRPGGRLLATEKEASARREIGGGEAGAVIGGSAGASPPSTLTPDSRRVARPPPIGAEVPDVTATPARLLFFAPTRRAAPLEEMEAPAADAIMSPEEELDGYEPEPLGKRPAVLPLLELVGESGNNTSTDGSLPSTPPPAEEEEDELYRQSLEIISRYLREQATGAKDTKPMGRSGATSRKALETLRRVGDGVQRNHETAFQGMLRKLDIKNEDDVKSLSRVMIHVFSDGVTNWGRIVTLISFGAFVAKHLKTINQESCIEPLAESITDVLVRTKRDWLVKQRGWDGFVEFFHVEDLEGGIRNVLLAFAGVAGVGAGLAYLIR

Turning to `O=C(COc1cccnc1[N+](=O)[O-])c1ccc(Cl)s1`, the IC50 is > 54 µM (inactive). In the case of `C=CC(c1ccccc1)C(C(=O)c1ccccc1)N(C)C` (centres undefined), the IC50 was > 54 µM (inactive). Turning to `COc1ccc(C(=O)C2CCCN(Cc3cn[nH]c3-c3ccc(F)cc3)C2)cc1OC` (centres undefined), the IC50 was > 54 µM (inactive). As to `COc1cc2c(cc1OC)-c1cc(NC3CCCCCCC3)nc(=O)n1CC2`, the IC50 was > 54 µM (inactive). As for `COCCn1cc(C(=O)N2CCC(C)CC2)c2c3ccccc3n(C)c2c1=O`, the IC50 result is “inactive”. As to `Cc1cccc(NC(=O)C2CCN(c3nc(C)cc(C)n3)CC2)c1`, the IC50 is > 54 µM (inactive).

Consider `CCNC(=O)c1cc(S(=O)(=O)N(C)C)c(Cl)cc1Cl`, for which the IC50 is > 54 µM (inactive). With `O=C(CSc1cccc[n+]1[O-])Nc1cc2c(cc1Cl)C(=O)c1ccccc1C2=O` the figure was 9.39 µM; with `O=C(CN1C(=O)/C(=C2\SC(=S)N(C3CCS(=O)(=O)C3)C2=O)c2ccccc21)Nc1ccc(F)cc1` (centres undefined), 0.72 µM; with `Cc1ccc([N+](=O)[O-])cc1-c1ccc(/C=C(\C#N)c2[nH]nc(N)c2C#N)o1`, 3.74 µM. `Cc1ccc2nc(SC(C)C(=O)NC3CCCc4ccccc43)[nH]c2c1` (centres undefined): the IC50 was > 54 µM (inactive). On to `Cc1ccc(S(=O)(=O)N/N=C/c2cnn(C)c2C)cc1`, for which the IC50 was > 54 µM (inactive). Turning to `Cc1ccc(OCc2ccc(C(=O)Nc3nc4ccccc4n3Cc3ccccc3)o2)c([N+](=O)[O-])c1`, the IC50 was > 54 µM (inactive). With `Cc1ccc(S(=O)(=O)CCNC(=O)Cc2ccccc2)cc1` the figure was > 54 µM (inactive); with `O=C(Oc1cccc(N2C(=O)C3C4c5ccccc5C(c5ccccc54)C3C2=O)c1)c1ccco1` (centres undefined), > 54 µM (inactive); with `O=C(NCC1CCCO1)c1ccc(CSCc2cccc(F)c2)o1` (centres undefined), > 54 µM (inactive). As for `COCCn1c(SCC(=O)NC(=O)NCc2ccccc2)nc2ccccc21`, the IC50 is > 54 µM (inactive). On to `CC(C)(C)CC(=O)O/N=C(\N)c1ccncc1`, for which the IC50 is > 54 µM (inactive). In the case of `CCN1/C(=C/C=C/c2oc3ccc4ccccc4c3[n+]2CC)Oc2ccc3ccccc3c21`, the IC50 is 0.58 µM. On to `CCOC(=O)c1cc(-c2ccccc2)n(CC(=O)N2CCCC2)c1C`, for which the IC50 was > 54 µM (inactive). Regarding `O=P(O)(O)C#Cc1ccccc1`, the IC50 was > 54 µM (inactive). Regarding `COc1cc(NC(=O)C2CCN(S(=O)(=O)c3cccc4nonc34)CC2)cc(OC)c1`, the IC50 was > 54 µM (inactive).

Take `O=C(O)CC(NC(=O)COc1ccc(Cl)cc1Cl)C(=O)O` (centres undefined): the IC50 was > 54 µM (inactive). Regarding `CCC(C)[C@H](NC(=O)Nc1ccccc1F)C(=O)O` (some centres undefined), the IC50 was > 54 µM (inactive).

In the case of `Cc1cccc2cc(/C=N/NC(=O)CN3CCOCC3)c(Cl)nc12`, the IC50 was > 54 µM (inactive). Consider `c1coc(-c2nc3c4c5c(sc4ncn3n2)CCCC5)c1`, for which the IC50 is > 54 µM (inactive). With `COc1cc2nc(N3CCN(C(=O)c4ccco4)CC3)nc(N)c2cc1OC`, the IC50 was > 54 µM (inactive). With `CC(C)n1c(SCC(=O)Nc2ccc3c(c2)OCO3)nc2c1c(=O)n(C)c(=O)n2C`, the IC50 was > 54 µM (inactive). With `O=C(Oc1ccc(Nc2ncnc3ccccc23)cc1)c1cccnc1` the figure was > 54 µM (inactive). As for `COc1ccc2[nH]c3c(c2c1)CCn1c-3nc2sc(C(=O)Nc3ccccc3)c(C)c2c1=O`, the IC50 is 1.89 µM. Consider `CCCN1CCC(NC(=S)Nc2ccc(C(=O)OCC)cc2)CC1`, for which the IC50 is > 54 µM (inactive). With `CC1CCc2c(sc3ncn(CC(=O)N=Nc4c(O)[nH]c5ccccc45)c(=O)c23)C1` (centres undefined) the figure was 1.47 µM. Regarding `CCOc1ccc(-c2csc3ncn(-c4ccc(OC)cc4)c(=O)c23)cc1`, the IC50 was > 54 µM (inactive). On to `Cn1c(=O)c2c(nc(Cc3ccc(N)cc3)n2C)n(C)c1=O`, for which the IC50 was > 54 µM (inactive). For the compound `CCn1c(SCC(=O)NCc2ccco2)nnc1-c1ccc(N)cc1`, the IC50 was > 54 µM (inactive). With `O=[N+]([O-])c1cccc(S(=O)(=O)Nc2nc3ccccc3nc2Nc2cccc(S(=O)(=O)N3CCCCC3)c2)c1`, the IC50 entry is “inactive”. Take `COc1ccccc1NC(=O)c1sc2ncn(Cc3ccc(C)cc3)c(=O)c2c1C`: the IC50 is 7.75 µM. On to `N#Cc1c2nc3ccccc3nc2n2cc(NC(=O)c3ccc(F)cc3)ccc12`, for which the IC50 is 0.71 µM. Regarding `C[C@@H](C(=O)Nc1nc2ccc(F)cc2s1)N1C(=O)C2CC=CCC2C1=O` (some centres undefined), the IC50 is > 54 µM (inactive).

On to `NS(=O)(=O)c1ccc(CCNC(=O)C(=O)c2c[nH]c3ccccc23)cc1`, for which the IC50 was > 54 µM (inactive).

As for `COc1cc(-c2ccc(Nc3ccccc3C(=O)O)c(OC)c2)ccc1Nc1ccccc1C(=O)O`, the concentration for half-maximal inhibition (IC50) is 0.85 µM.

Turning to `O=C(C1=C[C@@H](c2csc3ccccc23)C[C@@H](OCc2ccc(CO)cc2)O1)N1CCN(Cc2ccc3c(c2)OCO3)CC1`, the IC50 was > 54 µM (inactive). For the compound `CN(C)S(=O)(=O)c1cccc(-c2nn(-c3ccccc3)cc2/C=C2\SC(=S)NC2=O)c1`, the IC50 is 9.99 µM. With `COC(=O)CN1C(C)=Nc2ccc(Br)cc2C1c1ccccc1` (centres undefined) the figure was > 54 µM (inactive). With `Cn1c(SCC(=O)N=Nc2c(O)[nH]c3ccccc23)nc2ccccc21` the figure was > 54 µM (inactive); with `O=C(O)c1ccc(CS(=O)(=O)Cc2ccccc2F)o1`, > 54 µM (inactive).

For the compound `CCN(CC)C(=O)CN(C)S(=O)(=O)c1cccc2nsnc12`, the IC50 is > 54 µM (inactive). With `O=C(CCS(=O)(=O)c1ccccc1)Nc1ccccc1-c1nc2ccccc2s1` the figure was > 54 µM (inactive); with `Cc1ccc(-c2nc(SCC(=O)Nc3ccccc3OC(F)F)c3c(C)c(C(=O)O)sc3n2)cc1`, > 54 µM (inactive); with `CCOc1cc(C(=S)N2CCOCC2)ccc1O`, > 54 µM (inactive). `COc1cc(/C=N/NC(=O)c2ccc(CN3c4cccc5cccc(c45)S3(=O)=O)cc2)cc(OC)c1O`: the IC50 is 1.41 µM. As to `O=[N+]([O-])c1ccc(-c2cn(-c3ccc(Cl)cc3)c(=S)[nH]2)cc1`, the IC50 was > 54 µM (inactive). For the compound `O=C1OC(c2cccs2)=N/C1=C/c1ccc(-c2cccc(C(=O)O)c2)o1`, the IC50 was 2.68 µM. With `O=c1cc(-c2ccccc2Cl)oc2c(NS(=O)(=O)c3cc(Cl)cc(Cl)c3O)ccc(O)c12` the figure was 7.73 µM; with `CCN1C(=O)/C(=C/c2cccs2)SC1=Nc1ccc(OC)cc1`, > 54 µM (inactive). In the case of `CCN(CC)C(=O)COC(=O)c1cc(-c2ccc(OC)cc2)nc2ccccc12`, the IC50 is > 54 µM (inactive). On to `C#CCOCCOCCOCCNc1nc(N2CCN(C(=O)[C@H](Cc3ccc(O)cc3)n3cc([C@@H](N)C(C)CC)nn3)CC2)nc(N2CCN(C(=O)[C@H](Cc3cc4ccccc4[nH]3)n3cc([C@@H](N)C(C)CC)nn3)CC2)n1` (some centres undefined), for which the IC50 is 0.82 µM. Consider `O=[N+]([O-])c1ccc(-c2nc3ccc([N+](=O)[O-])cc3[nH]2)cc1`, for which the concentration for half-maximal inhibition (IC50) was 13 µM.

As for `O=C(CN1C(=O)/C(=C2\SC(=S)N(C3CCS(=O)(=O)C3)C2=O)c2ccccc21)Nc1ccccc1` (centres undefined), the IC50 was 0.73 µM. In the case of `Cc1ccc(Cl)c(OCCCN(C)Cc2ccccc2)c1`, the IC50 was > 54 µM (inactive). Take `O=C(COC(=O)CC(NC(=O)c1ccccc1Cl)c1ccccc1)Nc1cccc(F)c1` (centres undefined): the IC50 was > 54 µM (inactive). Regarding `O=C(CN1C(=O)S/C(=C\c2ccc(Cl)cc2)C1=O)NNC(=O)c1ccccc1O`, the IC50 is 7.45 µM. With `CCCN(CCC)C(C(=O)Nc1cccc(OC)c1)c1ccccc1` (centres undefined) the figure was > 54 µM (inactive); with `CCCC(=O)Nc1ccc2oc(-c3cccnc3)nc2c1`, > 54 µM (inactive).

With `O=C(Nc1sc2c(c1C(=O)O)CCC2)c1ccccc1`, the IC50 is > 54 µM (inactive). With `C#CCOCCOCCOCCNc1nc(N2CCN(C(=O)C(Cc3ccc(O)cc3)n3cc(C(N)CC(C)C)nn3)CC2)nc(N2CCN(C(=O)C(Cc3cc4ccccc4[nH]3)n3cc(C(N)Cc4ccc(O)cc4)nn3)CC2)n1` (centres undefined) the figure was > 54 µM (inactive); with `O=C1CSC(c2ccncc2)N1Cc1ccccc1` (centres undefined), > 54 µM (inactive).

Consider `O=C(COc1cccc2c1CCN(Cc1ccc(Br)cc1)C2=O)NCc1ccco1`, for which the IC50 was > 54 µM (inactive).

For `Cc1nn(-c2ccccc2C(=O)O)c(=O)c2ccccc12`, the IC50 was > 54 µM (inactive). On to `COC(=O)c1cc2sc(Cl)cc2n1CC(=O)Nc1cccc(SC)c1`, for which the IC50 was > 54 µM (inactive). Consider `O=C1CN(C(=O)CNCc2ccccc2)c2ccccc2N1`, for which the IC50 is > 54 µM (inactive). With `COc1ccc(C)cc1S(=O)(=O)N(C)CC(=O)NCc1ccco1` the figure was > 54 µM (inactive); with `O=C1NC(=O)N(c2ccc(F)cc2)C(=O)/C1=C/c1ccc2c(c1)CCCN2Cc1ccccc1`, 0.79 µM. With `COc1ccc(CN2C(=O)c3cccnc3C2Nc2cc(Cl)c(OC)cc2OC)cc1` (centres undefined) the figure was 0.84 µM; with `COc1ccc(Nc2nc(C)c3ccccc3n2)cc1`, > 54 µM (inactive). Consider `O=[N+]([O-])c1ccc(NC(=S)NCCc2ccc(Cl)cc2)cc1`, for which the IC50 is > 54 µM (inactive). Consider `CC(=O)N1CCc2cc(S(=O)(=O)NC(Cc3ccccc3)C(=O)NC3CCCCCC3)ccc21` (centres undefined), for which the IC50 is > 54 µM (inactive). Take `O=C(Nc1ccc(-c2nc3cc(Cl)ccc3c(=O)o2)cc1)c1ccco1`: the IC50 was > 54 µM (inactive).

`O=C(NCc1nnc(SCC(=O)N2CCOCC2)o1)c1c(F)cccc1Cl`: the IC50 was > 54 µM (inactive). For `CC(/C=C1\SC(=S)N(CCCC(=O)Nc2ccc(C(=O)O)c(O)c2)C1=O)=C\c1ccccc1`, the IC50 is 3.49 µM. As for `O=C(Nc1nccs1)C1CC(=O)N(Cc2ccco2)C1` (centres undefined), the IC50 was > 54 µM (inactive). With `COc1ccccc1C(=O)NC(=S)NNC(=O)c1sc2ccccc2c1Cl` the figure was 1.7 µM; with `CCc1cc(=O)oc2cc3occ(-c4ccc(OC)c(F)c4)c3cc12`, > 54 µM (inactive). With `CN(C)CC(O)CN(c1ccccc1)c1ccccc1` (centres undefined), the IC50 was > 54 µM (inactive).
